The NIST ThermoML archive (doi:10.1007/s10765-008-0482-1)
Values joined by “and” are separate entries in the source; they are usually repeats but may differ in a detail not shown here. Identical values can stand only once. ± gives the expanded uncertainty stated by the source.

Assay: xn = mol fraction of the nth substance listed
Conditions: Fluid (supercritical or subcritical phases), Parallel plate method

CC [ethane] + O=C=O
thermal conductivity (291.06 K, Amount density=2940 mol/m3, x2 = 0.5): 0.0276 ± 0.0015 W/m/K | thermal conductivity (291.06 K, Amount density=6960 mol/m3, x2 = 0.5): 0.099 ± 0.0025 W/m/K | thermal conductivity (291.07 K, Amount density=5650 mol/m3, x2 = 0.5): 0.0554 ± 0.0021 W/m/K | thermal conductivity (291.07 K, Amount density=7530 mol/m3, x2 = 0.5): 0.114 ± 0.005 W/m/K | thermal conductivity (291.08 K, Amount density=435 mol/m3, x2 = 0.5): 0.0191 ± 0.0013 W/m/K | thermal conductivity (291.11 K, Amount density=6960 mol/m3, x2 = 0.5): 0.104 ± 0.0026 W/m/K | thermal conductivity (291.17 K, Amount density=6960 mol/m3, x2 = 0.5): 0.11 ± 0.0027 W/m/K | thermal conductivity (291.18 K, Amount density=6960 mol/m3, x2 = 0.5): 0.108 ± 0.0027 W/m/K | thermal conductivity (291.2 K, Amount density=7530 mol/m3, x2 = 0.5): 0.144 ± 0.0049 W/m/K | thermal conductivity (291.24 K, Amount density=7730 mol/m3, x2 = 0.5): 0.151 ± 0.011 W/m/K | thermal conductivity (291.26 K, Amount density=7530 mol/m3, x2 = 0.5): 0.159 ± 0.0056 W/m/K | thermal conductivity (291.29 K, Amount density=7530 mol/m3, x2 = 0.5): 0.158 ± 0.0057 W/m/K | thermal conductivity (291.32 K, Amount density=7530 mol/m3, x2 = 0.5): 0.21 ± 0.028 W/m/K | thermal conductivity (291.33 K, Amount density=7530 mol/m3, x2 = 0.5): 0.206 ± 0.0085 W/m/K | thermal conductivity (291.34 K, Amount density=435 mol/m3, x2 = 0.5): 0.0192 ± 0.0013 W/m/K | thermal conductivity (291.34 K, Amount density=2940 mol/m3, x2 = 0.5): 0.0274 ± 0.0014 W/m/K | thermal conductivity (291.34 K, Amount density=6960 mol/m3, x2 = 0.5): 0.11 ± 0.0027 W/m/K | thermal conductivity (291.34 K, Amount density=7730 mol/m3, x2 = 0.5): 0.203 ± 0.0049 W/m/K | thermal conductivity (291.35 K, Amount density=5650 mol/m3, x2 = 0.5): 0.0542 ± 0.0018 W/m/K | thermal conductivity (291.35 K, Amount density=6960 mol/m3, x2 = 0.5): 0.111 ± 0.0027 W/m/K | thermal conductivity (291.35 K, Amount density=7530 mol/m3, x2 = 0.5): 0.172 ± 0.0054 W/m/K | thermal conductivity (291.5 K, Amount density=435 mol/m3, x2 = 0.5): 0.0192 ± 0.0013 W/m/K | thermal conductivity (291.55 K, Amount density=2940 mol/m3, x2 = 0.5): 0.0274 ± 0.0014 W/m/K | thermal conductivity (291.55 K, Amount density=7730 mol/m3, x2 = 0.5): 0.128 ± 0.0039 W/m/K | thermal conductivity (291.57 K, Amount density=5650 mol/m3, x2 = 0.5): 0.0553 ± 0.0019 W/m/K | thermal conductivity (291.57 K, Amount density=7530 mol/m3, x2 = 0.5): 0.139 ± 0.0034 W/m/K | thermal conductivity (292.05 K, Amount density=6960 mol/m3, x2 = 0.5): 0.099 ± 0.0025 W/m/K and 0.0913 ± 0.0024 W/m/K | thermal conductivity (292.05 K, Amount density=7530 mol/m3, x2 = 0.5): 0.106 ± 0.0027 W/m/K | thermal conductivity (292.05 K, Amount density=7730 mol/m3, x2 = 0.5): 0.102 ± 0.0026 W/m/K | thermal conductivity (292.08 K, Amount density=435 mol/m3, x2 = 0.5): 0.0192 ± 0.0013 W/m/K | thermal conductivity (292.09 K, Amount density=5650 mol/m3, x2 = 0.5): 0.0546 ± 0.0018 W/m/K | thermal conductivity (292.11 K, Amount density=2940 mol/m3, x2 = 0.5): 0.0276 ± 0.0014 W/m/K | thermal conductivity (292.64 K, Amount density=6630 mol/m3, x2 = 0.74): 0.0593 ± 0.0019 W/m/K | thermal conductivity (293.08 K, Amount density=6710 mol/m3, x2 = 0.26): 0.0687 ± 0.002 W/m/K | thermal conductivity (293.08 K, Amount density=7530 mol/m3, x2 = 0.5): 0.0833 ± 0.0023 W/m/K | thermal conductivity (293.09 K, Amount density=6960 mol/m3, x2 = 0.5): 0.0861 ± 0.0023 W/m/K | thermal conductivity (293.11 K, Amount density=7730 mol/m3, x2 = 0.5): 0.0798 ± 0.0022 W/m/K | thermal conductivity (293.13 K, Amount density=2940 mol/m3, x2 = 0.5): 0.0277 ± 0.0014 W/m/K | thermal conductivity (293.14 K, Amount density=5650 mol/m3, x2 = 0.5): 0.052 ± 0.0018 W/m/K | thermal conductivity (293.15 K, Amount density=435 mol/m3, x2 = 0.5): 0.0193 ± 0.0013 W/m/K | thermal conductivity (293.15 K, Amount density=877 mol/m3, x2 = 0.26): 0.0213 ± 0.0013 W/m/K | thermal conductivity (293.15 K, Amount density=6630 mol/m3, x2 = 0.74): 0.0578 ± 0.0019 W/m/K | thermal conductivity (293.15 K, Amount density=9120 mol/m3, x2 = 0.74): 0.213 ± 0.014 W/m/K | thermal conductivity (293.17 K, Amount density=9120 mol/m3, x2 = 0.74): 0.16 ± 0.0036 W/m/K | thermal conductivity (293.24 K, Amount density=9120 mol/m3, x2 = 0.74): 0.156 ± 0.009 W/m/K | thermal conductivity (293.34 K, Amount density=9120 mol/m3, x2 = 0.74): 0.135 ± 0.004 W/m/K | thermal conductivity (293.53 K, Amount density=9120 mol/m3, x2 = 0.74): 0.116 ± 0.0029 W/m/K | thermal conductivity (293.64 K, Amount density=3090 mol/m3, x2 = 0.26): 0.0314 ± 0.0015 W/m/K | thermal conductivity (293.95 K, Amount density=9120 mol/m3, x2 = 0.74): 0.101 ± 0.0027 W/m/K | thermal conductivity (294.32 K, Amount density=9120 mol/m3, x2 = 0.74): 0.0842 ± 0.0023 W/m/K | thermal conductivity (294.72 K, Amount density=9120 mol/m3, x2 = 0.74): 0.0824 ± 0.0022 W/m/K | thermal conductivity (294.96 K, Amount density=6710 mol/m3, x2 = 0.26): 0.075 ± 0.0021 W/m/K | thermal conductivity (295.61 K, Amount density=7450 mol/m3, x2 = 0.25): 0.0795 ± 0.0022 W/m/K | thermal conductivity (295.7 K, Amount density=6960 mol/m3, x2 = 0.5): 0.0639 ± 0.002 W/m/K | thermal conductivity (295.73 K, Amount density=6710 mol/m3, x2 = 0.26): 0.0845 ± 0.0023 W/m/K | thermal conductivity (295.76 K, Amount density=7450 mol/m3, x2 = 0.25): 0.0843 ± 0.0024 W/m/K | thermal conductivity (295.87 K, Amount density=7450 mol/m3, x2 = 0.25): 0.0833 ± 0.0024 W/m/K | thermal conductivity (295.98 K, Amount density=7450 mol/m3, x2 = 0.25): 0.0881 ± 0.0026 W/m/K | thermal conductivity (296.02 K, Amount density=7530 mol/m3, x2 = 0.5): 0.0642 ± 0.002 W/m/K | thermal conductivity (296.02 K, Amount density=7730 mol/m3, x2 = 0.5): 0.0595 ± 0.0019 W/m/K | thermal conductivity (296.03 K, Amount density=9120 mol/m3, x2 = 0.74): 0.0663 ± 0.002 W/m/K | thermal conductivity (296.04 K, Amount density=5650 mol/m3, x2 = 0.5): 0.047 ± 0.0017 W/m/K | thermal conductivity (296.05 K, Amount density=6630 mol/m3, x2 = 0.74): 0.0507 ± 0.0018 W/m/K | thermal conductivity (296.05 K, Amount density=6710 mol/m3, x2 = 0.26): 0.099 ± 0.0043 W/m/K and 0.101 ± 0.0046 W/m/K | thermal conductivity (296.06 K, Amount density=435 mol/m3, x2 = 0.5): 0.0196 ± 0.0013 W/m/K | thermal conductivity (296.06 K, Amount density=6630 mol/m3, x2 = 0.74): 0.0506 ± 0.0018 W/m/K | thermal conductivity (296.06 K, Amount density=8450 mol/m3, x2 = 0.25): 0.112 ± 0.0058 W/m/K | thermal conductivity (296.07 K, Amount density=2940 mol/m3, x2 = 0.5): 0.0278 ± 0.0014 W/m/K | thermal conductivity (296.07 K, Amount density=6960 mol/m3, x2 = 0.5): 0.062 ± 0.0019 W/m/K | thermal conductivity (296.07 K, Amount density=7450 mol/m3, x2 = 0.25): 0.0888 ± 0.0024 W/m/K | thermal conductivity (296.1 K, Amount density=6710 mol/m3, x2 = 0.26): 0.0958 ± 0.0031 W/m/K | thermal conductivity (296.11 K, Amount density=8450 mol/m3, x2 = 0.25): 0.11 ± 0.0034 W/m/K | thermal conductivity (296.12 K, Amount density=446 mol/m3, x2 = 0.25): 0.0209 ± 0.0013 W/m/K | thermal conductivity (296.14 K, Amount density=2940 mol/m3, x2 = 0.25): 0.0304 ± 0.0016 W/m/K | thermal conductivity (296.14 K, Amount density=10780 mol/m3, x2 = 0.25): 0.0692 ± 0.002 W/m/K | thermal conductivity (296.18 K, Amount density=5680 mol/m3, x2 = 0.25): 0.075 ± 0.0022 W/m/K | thermal conductivity (296.18 K, Amount density=7490 mol/m3, x2 = 0.25): 0.0914 ± 0.0031 W/m/K | thermal conductivity (296.19 K, Amount density=5680 mol/m3, x2 = 0.25): 0.0751 ± 0.0022 W/m/K | thermal conductivity (296.2 K, Amount density=6830 mol/m3, x2 = 0.25): 0.0909 ± 0.0027 W/m/K | thermal conductivity (296.21 K, Amount density=8450 mol/m3, x2 = 0.25): 0.107 ± 0.0029 W/m/K | thermal conductivity (296.22 K, Amount density=6830 mol/m3, x2 = 0.25): 0.0855 ± 0.0025 W/m/K | thermal conductivity (296.22 K, Amount density=7450 mol/m3, x2 = 0.25): 0.0888 ± 0.0033 W/m/K and 0.099 ± 0.0036 W/m/K | thermal conductivity (296.24 K, Amount density=2940 mol/m3, x2 = 0.25): 0.0312 ± 0.0016 W/m/K | thermal conductivity (296.24 K, Amount density=6710 mol/m3, x2 = 0.26): 0.118 ± 0.0045 W/m/K | thermal conductivity (296.29 K, Amount density=5680 mol/m3, x2 = 0.25): 0.0757 ± 0.0021 W/m/K | thermal conductivity (296.31 K, Amount density=7490 mol/m3, x2 = 0.25): 0.102 ± 0.0033 W/m/K | thermal conductivity (296.34 K, Amount density=6710 mol/m3, x2 = 0.26): 0.159 ± 0.0056 W/m/K | thermal conductivity (296.34 K, Amount density=7490 mol/m3, x2 = 0.25): 0.107 ± 0.0036 W/m/K | thermal conductivity (296.36 K, Amount density=6710 mol/m3, x2 = 0.26): 0.166 ± 0.0059 W/m/K | thermal conductivity (296.38 K, Amount density=6710 mol/m3, x2 = 0.26): 0.147 ± 0.0054 W/m/K and 0.193 ± 0.0067 W/m/K and 0.172 ± 0.0061 W/m/K | thermal conductivity (296.39 K, Amount density=6710 mol/m3, x2 = 0.26): 0.166 ± 0.0045 W/m/K | thermal conductivity (296.4 K, Amount density=6710 mol/m3, x2 = 0.26): 0.18 ± 0.0049 W/m/K | thermal conductivity (296.4 K, Amount density=7450 mol/m3, x2 = 0.25): 0.124 ± 0.0037 W/m/K | thermal conductivity (296.4 K, Amount density=7490 mol/m3, x2 = 0.25): 0.114 ± 0.0064 W/m/K | thermal conductivity (296.41 K, Amount density=7450 mol/m3, x2 = 0.25): 0.117 ± 0.0035 W/m/K | thermal conductivity (296.44 K, Amount density=6710 mol/m3, x2 = 0.26): 0.167 ± 0.0044 W/m/K | thermal conductivity (296.44 K, Amount density=7490 mol/m3, x2 = 0.25): 0.124 ± 0.0065 W/m/K and 0.13 ± 0.0066 W/m/K | thermal conductivity (296.45 K, Amount density=5680 mol/m3, x2 = 0.25): 0.0719 ± 0.0021 W/m/K | thermal conductivity (296.46 K, Amount density=6830 mol/m3, x2 = 0.25): 0.102 ± 0.0036 W/m/K | thermal conductivity (296.52 K, Amount density=2940 mol/m3, x2 = 0.25): 0.0308 ± 0.0015 W/m/K | thermal conductivity (296.52 K, Amount density=6710 mol/m3, x2 = 0.26): 0.135 ± 0.0035 W/m/K | thermal conductivity (296.52 K, Amount density=7450 mol/m3, x2 = 0.25): 0.131 ± 0.0073 W/m/K | thermal conductivity (296.54 K, Amount density=7490 mol/m3, x2 = 0.25): 0.166 ± 0.0044 W/m/K | thermal conductivity (296.56 K, Amount density=446 mol/m3, x2 = 0.25): 0.0209 ± 0.0013 W/m/K | thermal conductivity (296.58 K, Amount density=7450 mol/m3, x2 = 0.25): 0.157 ± 0.01 W/m/K | thermal conductivity (296.62 K, Amount density=7450 mol/m3, x2 = 0.25): 0.184 ± 0.0039 W/m/K
